Consider 3 molecules from ChEMBL document CHEMBL1687831 (Antimicrob Agents Chemother, 2011).

Test [1] in a line: Inhibition of acinetobacter-derived cephalosporinase.
Test [2] is described as follows: Inhibition of beta-lactamase CTX-M-9 expressed in Escherichia coli BL21(DE3).
A short description of test [3]: Inhibition of beta-lactamase AmpC expressed in Escherichia coli.
A short description of test [4]: Inhibition of beta-lactamase TEM1 expressed in Escherichia coli JM109.
Test [5] in a line: Inhibition of beta-lactamase SHV1.

For orientation: Ki means the dissociation constant of the complex between target and ligand, obtained from inhibition or displacement. Low readings indicate higher affinity, high ones lower affinity. On to `CC(C)(O/N=C(\C(=O)NCB(O)O)c1csc(N)n1)C(=O)O` [CEFTAZIDIME BATSI], for which the Ki in test [1] worked out at 310 nM; in test [2], 15 nM; in test [3], 20 nM; in test [4], 390 nM.

Regarding `CCN1CCN(C(=O)N[C@@H](C(=O)NCB(O)O)c2ccc(O)cc2)C(=O)C1=O` [CEFOPERAZONE BATSI], the inhibition constant Ki in test [1] worked out at 600 nM; in test [5], 17000 nM.

In test [5], `CCN1CCN(C(=O)N[C@H](Cc2ccc(O)cc2)C(=O)NCB2OC(C)(C)C(C)(C)O2)C(=O)C1=O` came in with a Ki of 9800 nM.
